Results published in US20250263753A1, “BRIDGED CYCLE-BASED INHIBITORS OF DNA-DEPENDENT PROTEIN KINASE AND COMPOSITIONS AND APPLICATION IN GENE EDITING” (Juno Therapeutics, Inc., priority 2023, published 2025).
Like-named read-outs stand apart in the source and are kept apart here.

How the values were obtained:
[1] = biological target: PI3Kα (His-PIK3CA/PIK3R1, p110 alpha/p85 alpha) (Homo sapiens (Human), UniProt P42336); assay: PI3Kα biochemical assay (HTRF/FRET probe); assay type: binding; conditions: class symbol
Experimental: Phosphoinositide 3-kinase α (PI3Kα) Biochemical Assay: A solution was prepared containing 0.2 nM Anti-HIS-Terbium (Cisbio, 64CUSTAZU), 3.7 nM designed-probe and 1.0 nM His-PIK3CA/PIK3R1 (p110 alpha/p85 alpha) in FRET Buffer (20 mM HEPES, 10 mM MgCl2, 0.015% Brij-35, 4 mM DTT, 0.05 mg/mL BSA).

[2] = biological target: PI3Kδ (His-PIK3CD/PIK3R1, p110 delta/p85 alpha) (Homo sapiens (Human), UniProt O00329); assay: PI3Kδ biochemical assay (HTRF/FRET probe); assay type: binding; conditions: class symbol
Experimental: Phosphoinositide 3-kinase (PI3K) Biochemical Assay: A solution was prepared containing 0.2 nM Anti-HIS-Terbium (Cisbio, 64CUSTAZU), 40 nM designed-probe and 1.0 nM His-PIK3CD/PIK3R1 (p110 delta/p85 alpha) in FRET Buffer (20 mM HEPES, 10 mM MgCl2, 0.015% Brij-35, 4 mM DTT, 0.05 mg/mL BSA).

[3] = biological target: DNA-PK (Homo sapiens (Human), UniProt P78527); assay: DNA-PK biochemical assay (Reaction Biology HotSpot kinase assay, 10 μM ATP)
Experimental: DNA-PK Biochemical Assay Using Reaction Biology's HotSpot Kinase Assay Protocol:
Reagent: Base Reaction buffer; 20 mM Hepes (pH 7.5), 10 mM MgCl2, 1 mM EGTA, 0.01% Brij35, 0.02 mg/ml BSA, 0.1 mM Na3VO4, 2 mM DTT, 1% DMSO Required cofactors are added individually to each kinase reaction.
Reaction Procedure: 1. Prepare substrate in freshly prepared Reaction Buffer; 2. Deliver any required cofactors to the substrate solution above; 3. Deliver kinase into the substrate solution and gently mix; 4. Deliver compounds in 100% DMSO into the kinase reaction mixture by Acoustic technology (Echo550; nanoliter range), incubate for 20 min at room temperature; 5. Deliver 33P-ATP into the reaction mixture to initiate the reaction; 6. Incubate for 2 hours at room temperature; 7. Detect kinase activity by P81 filter-binding method.

[4] = biological target: ATM (Homo sapiens (Human), UniProt Q13315); assay: ATM biochemical assay (Reaction Biology HTRF kinase assay, 10 μM ATP)
Experimental: Ataxia-Telangiectasia Mutated (ATM) Biochemical Assay Using Reaction Biology's HTRF Kinase Assay Protocol:
The assay detects kinase activity by antibody based HTRF assay. The GST-tagged p53 protein serves as substrate and Eu-labeled-antibody with specific phosphorylation site binds upon phosphorylation which is monitored by HTRF from the anti-GST-d2.
Reagent: Reaction buffer; 50 mM Hepes (pH 7.5), 150 mM NaCl, 10 mM MnCl2, 1% Glycerol, 0.01% Brij35, 1 mM DTT, 1% DMSO.
Substrate: Human p53 (aa2-393), RBC produced in E. coli, N-terminal GST-Tag, MW=70.42 kDa.
Detection; MAb Anti-p53-pS15-Eu cryptate, CisBio cat #61P08KAZ; MAb Anti GST-d2
Reaction Procedure: 1. Deliver 2× Enzyme in wells of reaction plate except No E control wells. Add buffer instead; 2. Deliver compounds in 100% DMSO into the kinase reaction mixture by Acoustic technology (Echo550; nanoliter range), incubate for 30 min at room temperature; 3. Deliver 2× substrate+ATP mixture into the reaction mixture to initiate the reaction; 4. Incubate for 2 hours at room temperature.
HTRF Detection: 1. Deliver 2× Stop/Detection mixture and incubate for 2 hours to overnight in the dark. 2. HTRF measurement (Ex/Em1/Em2=320/615/665 nm) in EnVision.

[5] = read-out: ATM HTRF 10 μM ATP IC50, class symbol
[6] = read-out: DNA-PK HotSpot 10 μM ATP IC50, class symbol

Sequence of PI3Kα (His-PIK3CA/PIK3R1, p110 alpha/p85 alpha) (P42336 whole entry, species assumed): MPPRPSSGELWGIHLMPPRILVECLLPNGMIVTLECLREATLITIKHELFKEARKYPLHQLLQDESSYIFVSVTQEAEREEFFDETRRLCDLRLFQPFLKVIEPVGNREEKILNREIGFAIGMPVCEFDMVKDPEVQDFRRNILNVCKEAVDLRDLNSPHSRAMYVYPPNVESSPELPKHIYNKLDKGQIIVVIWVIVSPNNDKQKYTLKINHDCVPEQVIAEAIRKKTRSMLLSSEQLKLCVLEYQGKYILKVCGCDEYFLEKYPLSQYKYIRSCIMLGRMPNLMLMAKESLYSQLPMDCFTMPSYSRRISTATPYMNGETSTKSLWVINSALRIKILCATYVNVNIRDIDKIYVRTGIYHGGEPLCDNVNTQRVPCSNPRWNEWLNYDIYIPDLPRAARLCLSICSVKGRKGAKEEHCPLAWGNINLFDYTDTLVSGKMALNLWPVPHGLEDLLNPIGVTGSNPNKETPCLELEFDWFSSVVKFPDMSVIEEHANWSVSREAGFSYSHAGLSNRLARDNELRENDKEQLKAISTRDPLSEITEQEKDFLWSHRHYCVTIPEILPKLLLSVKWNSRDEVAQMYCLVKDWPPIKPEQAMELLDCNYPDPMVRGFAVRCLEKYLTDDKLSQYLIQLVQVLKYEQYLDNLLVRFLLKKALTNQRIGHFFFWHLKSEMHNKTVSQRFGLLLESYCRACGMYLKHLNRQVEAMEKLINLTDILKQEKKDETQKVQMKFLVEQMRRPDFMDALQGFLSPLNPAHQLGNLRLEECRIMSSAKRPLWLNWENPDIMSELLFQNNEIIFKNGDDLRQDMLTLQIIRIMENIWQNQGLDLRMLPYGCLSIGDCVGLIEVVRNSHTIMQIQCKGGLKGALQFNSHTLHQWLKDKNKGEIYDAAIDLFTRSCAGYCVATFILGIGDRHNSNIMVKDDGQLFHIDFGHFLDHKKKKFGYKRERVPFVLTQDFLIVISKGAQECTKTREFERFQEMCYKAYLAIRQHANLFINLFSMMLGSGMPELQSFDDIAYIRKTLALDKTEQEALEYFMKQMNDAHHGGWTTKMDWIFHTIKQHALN
Sequence of PI3Kα (His-PIK3CA/PIK3R1, p110 alpha/p85 alpha) (P27986 whole entry partner, species assumed): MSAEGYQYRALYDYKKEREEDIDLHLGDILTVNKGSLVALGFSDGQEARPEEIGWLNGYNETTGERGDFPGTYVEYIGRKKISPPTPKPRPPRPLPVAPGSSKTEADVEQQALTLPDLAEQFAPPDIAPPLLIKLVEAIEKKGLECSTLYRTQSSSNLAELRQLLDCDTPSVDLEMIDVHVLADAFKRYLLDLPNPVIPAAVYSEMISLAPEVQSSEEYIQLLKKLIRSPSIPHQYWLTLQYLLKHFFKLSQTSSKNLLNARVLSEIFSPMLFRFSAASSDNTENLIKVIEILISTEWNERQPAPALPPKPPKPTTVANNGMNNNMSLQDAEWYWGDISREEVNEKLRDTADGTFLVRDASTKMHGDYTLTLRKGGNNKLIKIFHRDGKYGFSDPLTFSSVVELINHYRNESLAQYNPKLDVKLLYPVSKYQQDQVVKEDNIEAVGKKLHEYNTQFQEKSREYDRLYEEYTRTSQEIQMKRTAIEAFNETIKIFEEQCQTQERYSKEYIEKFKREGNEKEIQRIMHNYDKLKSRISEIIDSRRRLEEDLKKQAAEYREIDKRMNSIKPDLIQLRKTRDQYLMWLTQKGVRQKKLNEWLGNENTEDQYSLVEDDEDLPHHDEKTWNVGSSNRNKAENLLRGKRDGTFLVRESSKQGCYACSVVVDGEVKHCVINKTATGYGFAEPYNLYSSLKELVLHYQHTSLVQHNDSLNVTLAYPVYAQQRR
Sequence of PI3Kδ (His-PIK3CD/PIK3R1, p110 delta/p85 alpha) (O00329 whole entry, species assumed): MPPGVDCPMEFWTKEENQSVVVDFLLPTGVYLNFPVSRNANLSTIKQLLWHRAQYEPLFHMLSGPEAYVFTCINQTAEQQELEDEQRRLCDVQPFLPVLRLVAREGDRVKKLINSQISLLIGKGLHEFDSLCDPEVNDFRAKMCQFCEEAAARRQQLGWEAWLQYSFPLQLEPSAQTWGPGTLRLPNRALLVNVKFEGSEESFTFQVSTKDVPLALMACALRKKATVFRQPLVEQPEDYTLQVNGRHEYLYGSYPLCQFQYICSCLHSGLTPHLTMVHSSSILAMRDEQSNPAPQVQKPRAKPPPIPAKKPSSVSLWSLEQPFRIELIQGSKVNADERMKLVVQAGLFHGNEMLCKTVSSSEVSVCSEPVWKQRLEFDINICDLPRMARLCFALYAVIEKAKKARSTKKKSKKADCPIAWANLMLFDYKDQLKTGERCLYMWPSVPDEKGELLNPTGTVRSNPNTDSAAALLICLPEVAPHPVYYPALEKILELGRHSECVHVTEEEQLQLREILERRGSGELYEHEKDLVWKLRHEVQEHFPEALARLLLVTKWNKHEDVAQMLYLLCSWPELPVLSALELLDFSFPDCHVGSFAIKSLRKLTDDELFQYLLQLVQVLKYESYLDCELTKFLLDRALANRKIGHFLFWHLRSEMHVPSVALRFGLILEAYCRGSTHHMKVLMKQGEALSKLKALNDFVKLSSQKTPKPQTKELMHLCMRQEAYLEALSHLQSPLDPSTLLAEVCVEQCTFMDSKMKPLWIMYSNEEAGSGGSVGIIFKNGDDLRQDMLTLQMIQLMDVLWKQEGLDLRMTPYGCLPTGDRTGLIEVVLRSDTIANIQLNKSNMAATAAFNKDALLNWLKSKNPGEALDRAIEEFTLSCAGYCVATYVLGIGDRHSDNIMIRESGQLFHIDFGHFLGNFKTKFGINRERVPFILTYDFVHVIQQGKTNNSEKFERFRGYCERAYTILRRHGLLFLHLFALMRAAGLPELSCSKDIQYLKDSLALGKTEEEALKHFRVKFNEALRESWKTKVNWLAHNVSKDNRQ
Sequence of PI3Kδ (His-PIK3CD/PIK3R1, p110 delta/p85 alpha) (P27986 whole entry partner, species assumed): as the sequence (P27986 whole entry partner, species assumed) above

| SMILES | IC50 [1] | IC50 [2] | IC50 ([3]; class symbol) | IC50 [4, 5] | IC50 [3, 6] | IC50 ([4]; class symbol) |
| --- | --- | --- | --- | --- | --- | --- |
| COC12CCC(n3c(=O)n(C)c4cnc(Nc5cc6nccnc6cc5C)nc43)(CC1)C2 [Compound 9, 9-(4-methoxybicyclo[2.2.1]heptan-1-yl)-7-methyl-2-((7-methylquinoxalin-6-yl)amino)-7,9-dihydro-8H-purin-8-one] | 10 to 100 nM | 100 to 1000 nM | – | – | < 1 nM | 10 to 100 nM |
| Cc1cc2nccnc2cc1Nc1ncc2c(n1)n(C13CC(F)(C1)C3)c(=O)n2C [Compound 15, 9-(3-fluorobicyclo[1.1.1]pentan-1-yl)-7-methyl-2-((7-methylquinoxalin-6-yl)amino)-7,9-dihydro-8H-purin-8-one] | 100 to 1000 nM | ≥ 1000 nM | 1 to 10 nM | – | – | 100 to 1000 nM |
| Cc1cc2c(cc1Nc1ncc3c(n1)n(C14CCC(O)(CC1)CC4)c(=O)n3C)OCO2 [Compound 27, 9-(4-hydroxybicyclo[2.2.2]octan-1-yl)-7-methyl-2-((6-methylbenzo[d][1,3]dioxol-5-yl)amino)-7,9-dihydro-8H-purin-8-one] | 10 to 100 nM | ≥ 1000 nM | – | – | < 1 nM | 10 to 100 nM |
| Cc1cc2c(cc1Nc1ncc3c(n1)N(C14CCC(O)(CC1)C4)CC(=O)N3C)OCO2 [Compound 52, 8-{4-Hydroxybicyclo[2.2.1]heptan-1-yl}-5-methyl-2-[(6-methyl-2H-1,3-benzodioxol-5-yl)amino]-5,6,7,8-tetrahydropteridin-6-one] | ≥ 1000 nM | ≥ 1000 nM | 10 to 100 nM | ≥ 1000 nM | – | – |
| Cc1cc(-c2cnco2)ncc1Nc1ncc2c(n1)N(C13CC(F)(C1)C3)C(=O)C21CC1 [Compound 74, 7′-(3-fluorobicyclo[1.1.1]pentan-1-yl)-2′-((4-methyl-6-(oxazol-5-yl)pyridin-3-yl)amino)spiro[cyclopropane-1,5′-pyrrolo[2,3-d]pyrimidin]-6′(7′H)-one] | 100 to 1000 nM | ≥ 1000 nM | 1 to 10 nM | – | – | 10 to 100 nM |
| Cc1cc2c(cc1Nc1ncc3c(n1)n(C14CCC(O)(CC1)C4)c(=O)n3C)OCCO2 [Compound 5, 9-(4-hydroxybicyclo[2.2.1]heptan-1-yl)-7-methyl-2-((7-methyl-2,3-dihydrobenzo[b][1,4]dioxin-6-yl)amino)-7,9-dihydro-8H-purin-8-one] | 100 to 1000 nM | ≥ 1000 nM | – | – | < 1 nM | 10 to 100 nM |
| [2H]C([2H])([2H])n1c(=O)n(C23CCC(O)(CC2)C3)c2nc(Nc3cn4ncnc4cc3C)ncc21 [Compound 77, 9-(4-hydroxybicyclo[2.2.1]heptan-1-yl)-7-(methyl-d3)-2-((7-methyl-[1,2,4]triazolo[1,5-a]pyridin-6-yl)amino)-7,9-dihydro-8H-purin-8-one] | 100 to 1000 nM | 100 to 1000 nM | – | – | < 1 nM | 10 to 100 nM |
| COC12CCC(n3c(=O)n(C)c4cnc(Nc5cc6c(cc5C)OCO6)nc43)(CC1)CC2 [Compound 26, 9-(4-methoxybicyclo[2.2.2]octan-1-yl)-7-methyl-2-((6-methylbenzo[d][1,3]dioxol-5-yl)amino)-7,9-dihydro-8H-purin-8-one] | 100 to 1000 nM | ≥ 1000 nM | – | – | < 1 nM | 10 to 100 nM |
| Cc1cc(-c2cnn(C)c2)c(F)cc1Nc1ncc2c(n1)n(C13CC(F)(C1)C3)c(=O)n2C [Compound 38, 2-((5-fluoro-2-methyl-4-(1-methyl-1H-pyrazol-4-yl)phenyl)amino)-9-(3-fluorobicyclo[1.1.1]pentan-1-yl)-7-methyl-7,9-dihydro-8H-purin-8-one] | – | ≥ 1000 nM | 10 to 100 nM | – | – | 10 to 100 nM |
| Cc1cc2nsnc2cc1Nc1ncc2c(n1)N(C13CCC(O)(CC1)C3)C(=O)C21CC1 [Compound 69, 7′-(4-hydroxybicyclo[2.2.1]heptan-1-yl)-2′-((6-methylbenzo[c][1,2,5]thiadiazol-5-yl)amino)spiro[cyclopropane-1,5′-pyrrolo[2,3-d]pyrimidin]-6′(7′H)-one] | 10 to 100 nM | – | – | – | < 1 nM | 10 to 100 nM |
| COC12CCC(n3c(=O)n(C)c4cnc(Nc5cc6c(cc5C)OCO6)nc43)(C1)C2 [Compound 28, 9-(4-methoxybicyclo[2.1.1]hexan-1-yl)-7-methyl-2-((6-methylbenzo[d][1,3]dioxol-5-yl)amino)-7,9-dihydro-8H-purin-8-one] | – | ≥ 1000 nM | 1 to 10 nM | ≥ 1000 nM | – | – |
| Cc1cc2c(cc1Nc1ncc3c(n1)n(C14CCC(O)(CC1)C4)c(=S)n3C)OCO2 [Compound 32, 9-(4-hydroxybicyclo[2.2.1]heptan-1-yl)-7-methyl-2-((6-methylbenzo[d][1,3]dioxol-5-yl)amino)-7,9-dihydro-8H-purine-8-thione] | ≥ 1000 nM | – | 1 to 10 nM | ≥ 1000 nM | – | – |

More lines, now with the values ahead:

| IC50 [1] | IC50 [2] | IC50 ([3]; class symbol) | IC50 [4, 5] | IC50 [3, 6] | IC50 ([4]; class symbol) | SMILES |
| --- | --- | --- | --- | --- | --- | --- |
| ≥ 1000 nM | ≥ 1000 nM | 1 to 10 nM | ≥ 1000 nM | – | – | Cc1cc2ncnn2cc1Nc1ncc2c(n1)N(C13CC(F)(C1)C3)CC(=O)N2C [Compound 54, 8-{3-Fluorobicyclo[1.1.1]pentan-1-yl}-5-methyl-2-({7-methyl-[1,2,4]triazolo[1,5-a]pyridin-6-yl}amino)-5,6,7,8-tetrahydropteridin-6-one] |
| 10 to 100 nM | 100 to 1000 nM | – | – | < 1 nM | 1 to 10 nM | Cc1cc2nnccc2cc1Nc1ncc2c(n1)N(C13CCC(O)(CC1)C3)CC(=O)N2C [Compound 61, 8-(4-hydroxybicyclo[2.2.1]heptan-1-yl)-5-methyl-2-((7-methylcinnolin-6-yl)amino)-7,8-dihydropteridin-6(5H)-one] |
| 100 to 1000 nM | 100 to 1000 nM | 1 to 10 nM | – | – | 10 to 100 nM | Cc1cc2ncccc2cc1Nc1ncc2c(n1)N(C13CC(F)(C1)C3)CC(=O)N2C [Compound 57, 8-(3-fluorobicyclo[1.1.1]pentan-1-yl)-5-methyl-2-((7-methylquinolin-6-yl)amino)-7,8-dihydropteridin-6(5H)-one] |
| 10 to 100 nM | 100 to 1000 nM | – | – | < 1 nM | 1 to 10 nM | COC12CCC(N3CC(=O)N(C)c4cnc(Nc5cc6cccnc6cc5C)nc43)(CC1)C2 [Compound 65, 8-(4-methoxybicyclo[2.2.1]heptan-1-yl)-5-methyl-2-((7-methylquinolin-6-yl)amino)-7,8-dihydropteridin-6(5H)-one] |
| 10 to 100 nM | 100 to 1000 nM | – | – | < 1 nM | 1 to 10 nM | Cc1cc2nsnc2cc1Nc1ncc2c(n1)N(C13CCC(O)(CC1)C3)CC(=O)N2C [Compound 55, 8-{4-Hydroxybicyclo[2.2.1]heptan-1-yl}-5-methyl-2-[(6-methyl-2,1,3-benzothiadiazol-5-yl)amino]-5,6,7,8-tetrahydropteridin-6-one] |
| 100 to 1000 nM | 100 to 1000 nM | – | – | < 1 nM | 10 to 100 nM | Cc1cc2nccnc2cc1Nc1ncc2c(n1)N(C13CCC(O)(CC1)C3)CC(=O)N2C [Compound 59, 8-(4-hydroxybicyclo[2.2.1]heptan-1-yl)-5-methyl-2-((7-methylquinoxalin-6-yl)amino)-7,8-dihydropteridin-6(5H)-one] |
| – | 10 to 100 nM | – | – | < 1 nM | 10 to 100 nM | Cc1cc2ncccc2cc1Nc1ncc2c(n1)N(C13CCC(O)(CC1)C3)CC(=O)N2C [Compound 53, 8-{4-Hydroxybicyclo[2.2.1]heptan-1-yl}-5-methyl-2-[(7-methylquinolin-6-yl)amino]-5,6,7,8-tetrahydropteridin-6-one] |
| ≥ 1000 nM | – | – | – | < 1 nM | 100 to 1000 nM | Cc1cc2nsnc2cc1Nc1ncc2c(n1)N(C13CC(F)(C1)C3)CC(=O)N2C [Compound 58, 8-(3-fluorobicyclo[1.1.1]pentan-1-yl)-5-methyl-2-((6-methylbenzo[c][1,2,5]thiadiazol-5-yl)amino)-7,8-dihydropteridin-6(5H)-one] |
